The record followed here is ChEMBL document CHEMBL1201862, “PubChem BioAssay data set” (2004).

Test systems include COLO 205; SK-OV-3; NCI-H23; OVCAR-4; CAKI-1; SW-620; IGROV-1; HCC 2998; SF-268; MDA-MB-231; OVCAR-5; K562; SK-MEL-2; MOLT-4; Hs-578T; NCI-H522; SK-MEL-28; MCF7; EKVX; HOP-92.
What all share (assay): NCI-60 cell line screen, 48 h

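Five concentrations, 48 hours, 96-well plates. Abbreviation: GI50, concentration required for 50% inhibition of growth.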 Active and inactive are the calls of the source. No stated cut-off is given here; in the data, active = GI50 up to about 1.1 µM and inactive = higher.

In the case of `CCOC(=O)c1[nH]c2nc(SC)nc(Nc3ccccc3Cl)c2c1N`, the GI50 was 28.9 µM (inactive) in the experiment with COLO 205; 21.4 µM (inactive) with SK-OV-3; 19.2 µM (inactive) in the experiment on NCI-H23; 14.6 µM (inactive) in the experiment with OVCAR-4; 25.5 µM (inactive) with CAKI-1; 27.2 µM (inactive) with SW-620. Moreover, the GI50 in the experiment on IGROV-1 was 26.9 µM (inactive); in the experiment on HCC 2998 it was 27.4 µM (inactive); in the experiment on SF-268, 19.8 µM (inactive); with MDA-MB-231, 16.6 µM (inactive); with OVCAR-5 it was 19.6 µM (inactive); with K562, 13.9 µM (inactive). Moreover, the GI50 is 29 µM (inactive) with SK-MEL-2; 8.55 µM (inactive) in the experiment with MOLT-4; 20.1 µM (inactive) in the experiment with Hs-578T; 16.8 µM (inactive) in the experiment on NCI-H522; 31.3 µM (inactive) with SK-MEL-28.

For `O=C(CN1CCOCC1)c1ccc2[nH]c(=O)oc2c1`, the GI50 with COLO 205, with SK-OV-3, with NCI-H23, with CAKI-1, with SW-620 and in the experiment with MCF7 was > 100 µM (inactive) in each case. In addition, the GI50 in the experiment on IGROV-1, in the experiment with SF-268, in the experiment with MDA-MB-231, in the experiment with OVCAR-5, in the experiment with K562 and in the experiment with SK-MEL-2 was > 100 µM (inactive) throughout. Further, the GI50 with EKVX, in the experiment with MOLT-4, in the experiment with Hs-578T and with SK-MEL-28 was > 100 µM (inactive) in each case.

Turning to `Cc1nn(CNc2ccc(F)c(Cl)c2)c(=S)n1/N=C/c1ccc(-c2ccc(Cl)cc2Cl)o1`, the GI50 in the experiment on SK-OV-3 was 16.9 µM (inactive); in the experiment with NCI-H23, 20.1 µM (inactive); with OVCAR-4 it was 20.1 µM (inactive); in the experiment with CAKI-1 it was 16.8 µM (inactive); in the experiment on SW-620, 15.6 µM (inactive); with MCF7, 18.2 µM (inactive). The GI50 in the experiment on IGROV-1 is 16.7 µM (inactive); in the experiment with SF-268, 16.3 µM (inactive); with MDA-MB-231 it was 17.8 µM (inactive); in the experiment with OVCAR-5, 19.1 µM (inactive); in the experiment on K562, 1.49 µM (inactive); in the experiment with SK-MEL-2 it was 22.6 µM (inactive). Further, the GI50 is 16.4 µM (inactive) with EKVX; 0.493 µM (active) in the experiment with MOLT-4; 15.5 µM (inactive) in the experiment with Hs-578T; 14.4 µM (inactive) in the experiment with NCI-H522; 19.7 µM (inactive) in the experiment with SK-MEL-28.

On to `COc1ccc(Oc2cccc(/C=C3/C(=O)Nc4ccccc43)c2)cc1`, for which the GI50 in the experiment with COLO 205 is 3.73 µM (inactive); in the experiment with SK-OV-3 it was 13.8 µM (inactive); in the experiment with NCI-H23, 3.23 µM (inactive); in the experiment with OVCAR-4 it was 14 µM (inactive); in the experiment on CAKI-1 it was 6.87 µM (inactive); in the experiment on SW-620, 11.1 µM (inactive). Moreover, the GI50 in the experiment with MCF7 is 3.41 µM (inactive); in the experiment with IGROV-1, 7.91 µM (inactive); in the experiment on HCC 2998, 9.31 µM (inactive); with SF-268, 11.4 µM (inactive); in the experiment with OVCAR-5, 17.7 µM (inactive); with K562 it was 1.57 µM (inactive). The GI50 was 11.1 µM (inactive) with SK-MEL-2; 10.9 µM (inactive) in the experiment on EKVX; 4 µM (inactive) in the experiment with MOLT-4; 3.53 µM (inactive) in the experiment on HOP-92; 15.4 µM (inactive) in the experiment on Hs-578T; 6.61 µM (inactive) with NCI-H522. For the same compound, the GI50 in the experiment with SK-MEL-28 is 7.06 µM (inactive).

`Cc1n[nH]c(=O)n1N1C(=O)CCCC1=O`: the GI50 with COLO 205, in the experiment on SK-OV-3, in the experiment on NCI-H23, in the experiment on CAKI-1, in the experiment with MCF7 and in the experiment with IGROV-1 was > 100 µM (inactive) in each case. In addition, the GI50 in the experiment on HCC 2998 is > 100 µM (inactive); in the experiment on SF-268 it was > 100 µM (inactive); in the experiment on MDA-MB-231, > 100 µM (inactive); in the experiment on OVCAR-5, > 100 µM (inactive); in the experiment on K562, 63.4 µM (inactive); in the experiment with SK-MEL-2, > 100 µM (inactive). In addition, the GI50 was > 100 µM (inactive) in the experiment on EKVX, 22.6 µM (inactive) with MOLT-4, > 100 µM (inactive) with Hs-578T and > 100 µM (inactive) in the experiment on NCI-H522.
